Where two headings read alike, the source gives them in different places.
What was measured:
[1] = tested on: EBC-1 cell; assay: Test III: growth inhibition of non-small cell carcinoma EBC-1 cell (SRB); assay type: cell-based; details: Homo sapiens; for inhibition at 0.2 µM: read-out: Cell proliferation inhibition rate at 200 nM (%); for inhibition at 1 µM: read-out: Cell proliferation inhibition rate at 1 μM (%)
Method: Assays on the growth inhibition of the compounds against gastric tumor cell MKN45, non-small cell carcinoma EBC-1 cell (both are MET persistent activated cell lines due to MET gene amplification, and are Met dependent tumor cell lines, MKN45 cell was purchased from JCRB, Japan, EBC-1 cell was purchased from ATCC, USA) were detected using sulforhodamine B (SRB) staining. […] After incubation with compound for 72 hours, the incubation was terminated, adherent cells were retained and medium was discarded, 10% (w/v) trichloroacetic acid (100 μL pre well) was added, the cells were fixed at 4° C. for 1 hour, then rinsed with distilled water for 5 times, after dried at room temperature, SRB solution (4 mg/mL, dissolved in 1% glacial acetic acid) was added at 100 μL per well, incubated and stained at room temperature for 15 minutes, then rinsed with 1% glacial acetic acid for 5 times to remove any unbound SRB, dried at room temperature, then 10 mM Tris solution was added at 100 μL per well, the optical density (OD) value at 515 nm was measured using VERSMax microplate reader.
Experiments were conducted in duplicates. IC50 value was calculated by fitting the data for a four parameter fit using inhibition curve, the results are shown below in Table 2.

[2] = biological target: T1, c-Met kinase domain recombinant protein (Homo sapiens, UniProt P08581); assay: biochemical; details: for inhibition at 0.1 µM: read-out: Average inhibition rate at 0.1 μM (%); for inhibition at 1 µM: read-out: Average inhibition rate at 1 μM (%)
T1 construct: 50 μL diluted solution of c-Met kinase domain recombinant protein in reaction buffer was added to initiate the reaction
In short: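 IC50 came from a four-parameter fit of inhibition rates measured by anti-phosphotyrosine (PY99/HRP) ELISA at 490 nm. The reaction ran 1 hour at 37° C with 5 μM ATP, c-Met kinase domain protein and Poly(Glu,Tyr)4:1-coated wells, in HEPES pH 7.4 buffer containing MgCl2, MnCl2, Na3VO4 and DTT.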

T1 sequence (P08581 1078-1345 limits assumed): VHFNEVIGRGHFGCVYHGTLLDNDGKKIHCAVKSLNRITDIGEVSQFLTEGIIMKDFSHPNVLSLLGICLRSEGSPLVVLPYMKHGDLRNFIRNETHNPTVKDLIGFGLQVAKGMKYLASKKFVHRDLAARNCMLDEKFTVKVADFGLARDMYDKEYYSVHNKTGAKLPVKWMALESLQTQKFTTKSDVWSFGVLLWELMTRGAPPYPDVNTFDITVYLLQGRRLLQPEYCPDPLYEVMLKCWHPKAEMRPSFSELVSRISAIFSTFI

SMILES | inhibition at 0.2 µM ([1]; EBC-1, 72 h) [%] | inhibition at 1 µM ([1]; EBC-1, 72 h) [%] | IC50 [2] [nM] | inhibition at 0.1 µM [2] [%] | inhibition at 1 µM [2] [%] | inhibition at 0.2 µM ([1]; EBC-1, 200 nM, 72 hours) [%] | inhibition at 1 µM ([1]; EBC-1, 1 μM, 72 hours) [%]
COc1ccc2ncc(S(=O)(=O)n3ncc4ncc(-c5ccc(N6CCOCC6)cc5)cc43)n2c1 [Example 124, 1-[(6-methoxy-imidazo[1,2-a]pyridine)-3-sulfonyl]-6-(4-morpholinylphenyl)-1-H-pyrazolo[4,3-b]pyridine] | 43.1 | 92.7 | 4.7 ± 1 | 94.4 | 99.7 |  | 
COc1ccc(-c2cnc3cnn(S(=O)(=O)c4cnc5ccc(O)cn45)c3c2)cc1 [Example 126, 1-[(6-hydroxy-imidazo[1,2-a]pyridine)-3-sulfonyl]-6-(4-methoxyphenyl)-1-H-pyrazolo[4,3-b]pyridine] | 35.1 | 87 | 7.3 ± 1.1 | 100 | 100 |  | 
CC(C)C(=O)Oc1ccc2ncc(S(=O)(=O)n3ncc4ncc(-c5cnn(C)c5)cc43)n2c1 [Example 128, 1-[(6-isobutyryloxy-imidazo[1,2-a]pyridine)-3-sulfonyl]-6-[(1-methyl)-4-pyrazolyl]-1-H-pyrazolo[4,3-b]pyridine] | 80.6 | 87 | 2 ± 0.2 | 99.4 | 99.3 |  | 
Cn1cc(-c2cnc3cnn(S(=O)(=O)c4cnc5ccc(OC(=O)c6ccco6)cn45)c3c2)cn1 [Example 129, 1-[(6-furan-2-acyloxy-imidazo[1,2-a]pyridine)-3-sulfonyl]-6-[(1-methyl)-4-pyrazolyl]-1-H-pyrazolo[4,3-b]pyridine] | 79 | 86.6 | 2.7 ± 0.5 | 99.6 | 101 |  | 
CCC(=O)Nc1cnc2cnn(S(=O)(=O)c3cnc4ccc(Br)cn34)c2c1 [Example 132, 1-[(6-bromo-imidazo[1,2-a]pyridine)-3-sulfonyl]-6-propionamido-1-H-pyrazolo[4,3-b]pyridine] |  |  |  | 92.1 | 100 | 48.2 | 85.4
Cn1cc(-c2ccc3ncc(S(=O)(=O)n4ncc5ncc(NC(=O)c6ccccc6)cc54)n3c2)cn1 [Example 133, 1-{(6-[(1-methyl)-4-pyrazolyl]-imidazo[1,2a]pyridine)-3-sulfonyl}-6-benzamido-1-H-pyrazolo[4,3-b]pyridine] | 86.4 | 87.8 | 2.6 ± 0.2 | 100 | 100 |  | 
Cn1cc(-c2ccc3ncc(S(=O)(=O)n4ncc5ncc(C6=CCN(C7CCCC7)CC6)cc54)n3c2)cn1 [Example 135, 1-{(6-[(1-methyl)-4-pyrazolyl]-imidazo[1,2-a]pyridine)-3-sulfonyl}-6-[(1-cyclopentyl)-4-(1,2,3,6-tetrahydropyridinyl)]-1-H-pyrazolo[4,3-b]pyridine] | 89.4 | 91.4 | 2.6 ± 0.2 | 87.4 | 88.2 |  | 
Cn1cc(-c2ccc3ncc(S(=O)(=O)n4ncc5ncc(-c6cnn(C7CCN(C8CCCC8)CC7)c6)cc54)n3c2)cn1 [Example 136, 1-{(6-[(1-methyl)-4-pyrazolyl]-imidazo[1,2-a]pyridine)-3-sulfonyl}-6-{{1-[(1-cyclopentyl)-4-piperidinyl]}-4-pyrazolyl}-1-H-pyrazolo[4,3-b]pyridine] | 91.4 | 92.4 | 1.2 ± 0.1 | 90.2 | 91.3 |  | 
CC(C)N1CC=C(c2cnc3cnn(S(=O)(=O)c4cnc5ccc(-c6cnn(C)c6)cn45)c3c2)CC1 [Example 137, 1-{(6-[(1-methyl)-4-pyrazolyl]-imidazo[1,2-a]pyridine)-3-sulfonyl}-6-[(1-isopropyl)-4-(1,2,3,6-tetrahydropyridinyl)]-1-H-pyrazolo[4,3-b]pyridine] | 73 | 92.4 | 1.3 ± 0.1 | 91.6 | 89.9 |  | 
CCN1CCC(n2cc(-c3cnc4cnn(S(=O)(=O)c5cnc6ccc(-c7cnn(C)c7)cn56)c4c3)cn2)CC1 [Example 138, 1-{(6-[(1-methyl)-4-pyrazolyl]-imidazo[1,2-a]pyridine)-3-sulfonyl}-6-{{1-[(1-ethyl)-4-piperidinyl]}-4-pyrazolyl}-1-H-pyrazolo[4,3-b]pyridine] | 90.9 | 92.9 | 0.6 ± 0.01 | 87.7 | 90.5 |  | 
Cn1cc(-c2ccc3ncc(S(=O)(=O)n4ncc5ncc(C6=CCNCC6)cc54)n3c2)cn1 [Example 139, 1-{(6-[(1-methyl)-4-pyrazolyl]-imidazo[1,2-a]pyridine)-3-sulfonyl}-6-[4-(1,2,3,6-tetrahydropyridinyl)]-1-H-pyrazolo[4,3-b]pyridine] | 90.7 | 91.6 | 1 ± 0.1 | 90.3 | 88.9 |  | 
Cn1cc(-c2ccc3ncc(S(=O)(=O)n4ncc5ncc(-c6cnn(C7CCNCC7)c6)cc54)n3c2)cn1 [Example 140, 1-{(6-[(1-methyl)-4-pyrazolyl]-imidazo[1,2-a]pyridine)-3-sulfonyl}-6-{[1-(4-piperidinyl)]-4-pyrazolyl}-1-H-pyrazolo[4,3-b]pyridine] | 91.4 | 92 | 0.5 ± 0.03 | 92.4 | 89.5 |  | 
Cn1cc(-c2ccc3ncc(S(=O)(=O)n4ncc5ncc(-c6cnn(C7CCN(C(=O)OC(C)(C)C)CC7)c6)cc54)n3c2)cn1 [Example 141, 1-{(6-[(1-methyl)-4-pyrazolyl]-imidazo[1,2-a]pyridine)-3-sulfonyl}-6-{{1-[(1-t-butoxycarbonyl)-4-piperidinyl]}-4-pyrazolyl}-1-H-pyrazolo[4,3-b]pyridine] | 92.6 | 92.7 | 0.3 ± 0.1 | 86.3 | 88.5 |  | 
Cn1cc(-c2ccc3ncc(S(=O)(=O)n4ncc5ncc(-c6ccc(CN7CCOCC7)cc6)cc54)n3c2)cn1 [Example 143, 1-{(6-[(1-methyl)-4-pyrazolyl]-imidazo[1,2-a]pyridine)-3-sulfonyl}-6-(4-morpholinomethylphenyl)-1-H-pyrazolo[4,3-b]pyridine] | 92.3 | 92.5 | 0.4 ± 0.1 | 90 | 92.1 |  | 
Cn1cc(-c2ccc3ncc(S(=O)(=O)n4ncc5ncc(-c6ccccc6)cc54)n3c2)cn1 [Example 144, 1-{(6-[(1-methyl)-4-pyrazolyl]-imidazo[1,2-a]pyridine)-3-sulfonyl}-6-phenyl-1-H-pyrazolo[4,3-b]pyridine] | 91.1 | 91.4 | 0.3 ± 0.01 | 92.1 | 93.1 |  | 

Reference: patent US9988381B2, “Five-member-heterocycle fused pyridine compounds, method of producing the same, and use thereof” (SHANGHAI INSTITUTE OF MATERIA MEDICA, CHINESE ACADEMY OF …, priority 2013, dated 2018)
